Strand notation (5' to 3'): a small letter for the sugar, then the base; units joined by * are phosphorothioate-linked, units joined directly phosphodiester-linked; [ ] holds rarer units or linkages, { } end groups; capitals alone tell only the bases. k = constrained ethyl (cEt); [5mC] = 5-methylcytosine; d = 2'-deoxy (DNA)
system: human SMAD7 mRNA; assay: Antisense inhibition of human SMAD7 mRNA expression in Hep3B cells by 3-10-3 cEt gapmers, 10,000 nM, electroporation (Example 2); format: cell-based; conditions: Hep3B cells, electroporation with 10,000 nM antisense oligonucleotide, approximately 24 hours, RTS5062, percent inhibition of SMAD7 mRNA relative to untreated control cells
Outline: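 SMAD7 mRNA was measured by real-time PCR (RTS5062) with RiboGreen total-RNA normalization, about 24 h after 10,000 nM gapmer was delivered by electroporation into Hep3B cells at 20,000 per well. Gapmers were 16-mer 3-10-3 cEt, fully phosphorothioate; values are % inhibition versus untreated controls.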

Substance	% Inhibition [%]
799785 (k[5mC]*kT*k[5mC]*d[5mC]*dA*dG*dG*dT*dA*dG*dA*dG*dG*k[5mC]*kA*kA; antisense) [compound 799785]	0
799786 (kA*k[5mC]*kA*dG*dA*dA*dG*d[5mC]*dT*dG*d[5mC]*d[5mC]*d[5mC]*k[5mC]*kT*kG; antisense) [compound 799786]	0
799788 (k[5mC]*kA*k[5mC]*dA*dA*d[5mC]*d[5mC]*dA*dA*dA*dG*d[5mC]*dA*kG*kA*kA; antisense) [compound 799788]	59
799789 (kA*k[5mC]*kA*d[5mC]*dA*dA*d[5mC]*d[5mC]*dA*dA*dA*dG*d[5mC]*kA*kG*kA; antisense) [compound 799789]	44
799790 (kG*kA*kG*dA*d[5mC]*d[5mC]*dT*dA*d[5mC]*d[5mC]*dT*d[5mC]*dT*kG*kT*kT; antisense) [compound 799790]	33
799801 (kA*kA*kT*d[5mC]*dA*dA*dG*dT*d[5mC]*d[5mC]*dT*d[5mC]*dT*kG*kG*kA; antisense) [compound 799801]	18
799802 (k[5mC]*k[5mC]*kA*dG*dA*d[5mC]*dA*dG*dG*d[5mC]*d[5mC]*dA*dG*kG*kG*k[5mC]; antisense) [compound 799802]	20
799803 (kA*kG*kA*dA*dG*dG*dA*dT*dG*dA*dA*dT*dG*kT*kG*kA; antisense) [compound 799803]	10
799804 (kA*k[5mC]*kA*dG*dA*d[5mC]*dA*dG*dA*dG*dA*dA*dG*kG*kA*kT; antisense) [compound 799804]	38
799805 (k[5mC]*kG*kA*dG*dA*dA*dG*dA*dG*dT*dA*dA*dT*kT*k[5mC]*kA; antisense) [compound 799805]	1
799806 (antisense kG*kA*kG*dG*dA*dG*d[5mC]*dG*dA*dG*dA*dA*dG*kA*kG*kT) [compound 799806]	6
799807 (antisense kA*kA*kA*dT*dT*dG*dG*dA*dA*dT*dT*dG*dA*kG*kA*k[5mC]) [compound 799807]	37
799809 (antisense k[5mC]*kA*kA*dT*dA*d[5mC]*dT*dG*dA*dA*dA*dT*dG*kA*kG*k[5mC]) [compound 799809]	43
799810 (antisense k[5mC]*kT*kT*dA*dT*dT*dG*dT*dT*dT*dT*dT*dG*kT*kT*k[5mC]) [compound 799810]	14
799821 (antisense k[5mC]*k[5mC]*k[5mC]*d[5mC]*dA*dG*dA*dA*dA*dA*d[5mC]*dA*dG*k[5mC]*k[5mC]*k[5mC]) [compound 799821]	17
799822 (antisense k[5mC]*kA*k[5mC]*dG*dA*dT*d[5mC]*d[5mC]*dT*dG*dG*dG*d[5mC]*kT*k[5mC]*kT) [compound 799822]	0
799823 (antisense kA*k[5mC]*kA*dG*dG*dA*dA*dA*dG*dT*dG*dG*dA*kG*kG*kA) [compound 799823]	46
799824 (antisense kG*kA*kA*dA*dT*dG*dG*d[5mC]*dT*d[5mC]*d[5mC]*dT*dG*k[5mC]*kA*kA) [compound 799824]	9
799825 (antisense kG*kA*k[5mC]*dT*dT*dG*dG*d[5mC]*dA*dG*d[5mC]*d[5mC]*dA*kA*kG*k[5mC]) [compound 799825]	0
799826 (antisense kG*kA*kT*d[5mC]*dA*dT*dT*d[5mC]*d[5mC]*d[5mC]*dA*d[5mC]*dA*k[5mC]*k[5mC]*k[5mC]) [compound 799826]	33

same assay, conditions: Hep3B cells, electroporation, 10,000 nM antisense oligonucleotide, approximately 24 hours, RTS5062, relative to untreated control cells

Substance	% inhibition of SMAD7 mRNA expression [%]
799792 (kA*k[5mC]*k[5mC]*dA*dA*dA*dA*d[5mC]*d[5mC]*d[5mC]*dG*dG*dG*kA*kG*kA; antisense) [compound 799792]	31
799793 (kG*kT*kT*d[5mC]*dT*dT*d[5mC]*d[5mC]*dT*dG*d[5mC]*dT*dG*kT*k[5mC]*kA; antisense) [compound 799793]	30
799794 (kA*kA*k[5mC]*d[5mC]*dA*d[5mC]*dA*dG*d[5mC]*dT*d[5mC]*d[5mC]*dT*kG*kT*kT; antisense) [compound 799794]	0
799795 (k[5mC]*k[5mC]*kA*dG*dA*dT*dG*dT*dT*dT*d[5mC]*d[5mC]*d[5mC]*k[5mC]*kA*k[5mC]; antisense) [compound 799795]	66
799796 (k[5mC]*kA*kT*dT*dA*dG*dA*dT*dA*d[5mC]*dT*dG*dT*k[5mC]*kT*kT; antisense) [compound 799796]	43
799797 (kG*kA*k[5mC]*dA*dT*dT*dA*dG*dA*dT*dA*d[5mC]*dT*kG*kT*k[5mC]; antisense) [compound 799797]	27
799798 (kT*k[5mC]*k[5mC]*d[5mC]*dA*d[5mC]*dT*dT*d[5mC]*dT*d[5mC]*d[5mC]*dT*k[5mC]*kT*kG; antisense) [compound 799798]	50
799799 (kA*kA*kA*dA*d[5mC]*dA*dT*d[5mC]*d[5mC]*d[5mC]*dA*d[5mC]*dT*kT*k[5mC]*kT; antisense) [compound 799799]	28
799800 (kT*kT*kA*d[5mC]*dA*dA*dA*dG*dG*dG*dA*dA*dA*kG*kT*k[5mC]; antisense) [compound 799800]	28
799811 (antisense k[5mC]*kT*kG*d[5mC]*d[5mC]*dA*dA*d[5mC]*dG*dG*d[5mC]*dA*d[5mC]*kA*kG*kT) [compound 799811]	0
799812 (antisense k[5mC]*kA*kG*dA*d[5mC]*dA*dG*d[5mC]*dT*dA*dA*dT*d[5mC]*kT*kG*k[5mC]) [compound 799812]	39
799813 (antisense kA*kT*kG*d[5mC]*dA*dG*dA*d[5mC]*dA*dG*d[5mC]*dT*dA*kA*kT*k[5mC]) [compound 799813]	16
799814 (antisense k[5mC]*k[5mC]*kT*d[5mC]*dA*d[5mC]*dT*dT*dA*dG*d[5mC]*d[5mC]*dT*kG*k[5mC]*kA) [compound 799814]	0
799815 (antisense k[5mC]*kT*k[5mC]*dT*dT*dG*dA*dT*dG*dA*dT*d[5mC]*d[5mC]*kT*k[5mC]*kA) [compound 799815]	68
799816 (antisense kT*kG*kA*d[5mC]*dA*dA*dG*dG*dT*d[5mC]*d[5mC]*d[5mC]*d[5mC]*kA*kG*kG) [compound 799816]	19
799817 (antisense kT*kA*k[5mC]*dT*dG*dA*dT*dT*d[5mC]*dA*dT*dG*dA*kG*kG*kG) [compound 799817]	45
799818 (antisense k[5mC]*kA*k[5mC]*dT*dG*dA*dT*dA*dA*d[5mC]*dT*dA*dA*k[5mC]*kT*kT) [compound 799818]	24
799819 (antisense k[5mC]*k[5mC]*k[5mC]*d[5mC]*dA*d[5mC]*dT*dG*dA*dG*d[5mC]*dA*dG*kG*kA*kG) [compound 799819]	26
799820 (antisense k[5mC]*k[5mC]*k[5mC]*d[5mC]*dA*dG*d[5mC]*dA*dG*dG*dG*dT*dT*kT*kT*kG) [compound 799820]	0

From patent US10517889B2, “Modulators of SMAD7 expression” (Ionis Pharmaceuticals, Inc., priority 2017, dated 2019)
